Source: publication PMC8546889 (Acta Pharmaceutica Sinica. B, 2021)
Where two headings read alike, the source gives them in different places. Blank lines part the entries; values can stand above or below the compound they belong to.

Key:
[1] = read-out: Cytotoxicity (CC50); cited from earlier work
HT-29 cells [2] = assay: Anti-necroptosis activity assay; assay type: cell-based, human; settings: for EC50: Homo sapiens, HT-29, read-out: Anti-necroptosis (EC50); for anti-necroptosis activity improvement compared with TAK-632: EC50 ratio versus TAK-632
Cytotoxicity = assay type: cell-based
RIP3 [3] = target: T1, RIP3 (Homo sapiens, UniProt Q9Y572); assay: KINOMEscan kinase binding assay, RIP3
T1 sequence (Q9Y572 whole entry): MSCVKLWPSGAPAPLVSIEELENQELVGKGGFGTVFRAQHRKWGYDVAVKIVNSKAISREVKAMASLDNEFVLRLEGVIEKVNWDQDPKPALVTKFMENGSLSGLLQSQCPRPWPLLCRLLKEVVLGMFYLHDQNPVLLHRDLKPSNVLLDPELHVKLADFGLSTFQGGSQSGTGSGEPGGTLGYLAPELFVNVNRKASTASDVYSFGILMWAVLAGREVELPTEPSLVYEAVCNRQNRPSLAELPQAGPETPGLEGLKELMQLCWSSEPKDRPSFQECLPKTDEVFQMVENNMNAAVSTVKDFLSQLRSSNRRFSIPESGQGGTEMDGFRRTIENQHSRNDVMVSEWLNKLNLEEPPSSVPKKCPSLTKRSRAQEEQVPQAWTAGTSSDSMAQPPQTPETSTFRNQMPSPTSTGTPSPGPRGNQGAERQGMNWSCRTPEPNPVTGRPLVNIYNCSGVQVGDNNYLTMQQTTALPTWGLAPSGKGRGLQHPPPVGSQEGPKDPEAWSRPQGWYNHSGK

RIP1 [4] = target: T2, RIP1 (Homo sapiens, UniProt Q13546); assay: KINOMEscan kinase binding assay, RIP1; settings: for RIP1 selectivity: RIP1 over RIP3 (Kd ratio)
T2 sequence (Q13546 1-671): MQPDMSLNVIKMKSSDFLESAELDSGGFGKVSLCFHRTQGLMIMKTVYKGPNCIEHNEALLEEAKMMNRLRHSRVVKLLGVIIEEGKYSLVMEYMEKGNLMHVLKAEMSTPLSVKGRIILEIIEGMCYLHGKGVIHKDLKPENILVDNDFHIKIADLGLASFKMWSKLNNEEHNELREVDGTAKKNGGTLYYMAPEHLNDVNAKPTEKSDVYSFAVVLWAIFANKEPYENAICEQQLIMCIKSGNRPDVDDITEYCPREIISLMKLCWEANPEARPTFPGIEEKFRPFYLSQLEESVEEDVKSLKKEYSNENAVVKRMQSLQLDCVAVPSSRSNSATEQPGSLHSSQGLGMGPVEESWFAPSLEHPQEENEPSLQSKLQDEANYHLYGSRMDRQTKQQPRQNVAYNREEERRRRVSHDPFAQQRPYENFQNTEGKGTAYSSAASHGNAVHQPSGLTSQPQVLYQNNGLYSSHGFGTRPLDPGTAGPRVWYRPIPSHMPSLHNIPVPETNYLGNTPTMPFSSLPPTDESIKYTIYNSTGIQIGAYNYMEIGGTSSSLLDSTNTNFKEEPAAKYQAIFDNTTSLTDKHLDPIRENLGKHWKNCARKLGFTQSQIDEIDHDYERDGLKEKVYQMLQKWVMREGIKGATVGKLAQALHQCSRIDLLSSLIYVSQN

HT-29 cells [5] = assay: Apoptosis model induced by TC or TS in HT-29 cells; assay type: cell-based, human; settings: different concentrations
healthy mice = assay: Single-dose acute oral toxicity test; assay type: in vivo
RIP1 [6] = target: T2, RIP1; assay: Drug affinity responsive target stability assay; settings: 50 μmol/L, HT-29 cell lysates, 0.1% Pronase 30 min
C57BL/6 J mice [7] = assay: DSS-induced UC model; assay type: in vivo
RIP3 [8] = target: T1, RIP3; assay: Drug affinity responsive target stability assay; settings: 50 μmol/L, HT-29 cell lysates, 0.1% Pronase 30 min
HT-29 cells [9] = assay: TCZ-induced necroptosis in HT-29 cells; assay type: cell-based, human; settings: TCZ 24 h
PK study in mice = assay type: in vivo; settings: male, ICR, mouse, plasma; for AUC: mice
L929 cells = assay: TZ-induced necroptosis in L929 cells; settings: mTNF-α and Z-VAD-FMK (TZ), 9 h
[10] = tested on: phosphorylation of RIP1, RIP3, and MLKL; assay: Immunoblotting of necroptosis pathway phosphorylation in TSZ-induced HT-29 cells; assay type: cell-based, human; settings: 1 μmol/L
RIP1-RIP3 necrosome = target: T3, RIP1-RIP3 necrosome (Homo sapiens, UniProt Q13546); assay: Immunoprecipitation of RIP1-RIP3 necrosome; settings: HT-29 cells, 1 μmol/L, 6 h
T3 sequence (Q13546 1-671): T2 sequence (Q13546 1-671)

C57BL/6 J mice [11] = assay: TNF-α-induced systemic inflammatory response syndrome; settings: for survival rate of SIRS mice: over 60 h

Structure (SMILES): N#Cc1c(Oc2ccc(F)c(NC(=O)Cc3cccc(C(F)(F)F)c3)c2)ccc2nc(NC(=O)C3CC3)sc12 [Compound 5, N-(7-Cyano-6-(4-fluoro-3-(2-(3-(trifluoromethyl)phenyl)acetamido)phenoxy)benzo[d]thiazol-2-yl)cyclopropanecarboxamide]
CC50 [1]: > 50000 nM

Kd (RIP3 [3]): 260 nM
Kd (RIP1 [4]): 710 nM
RIP1 selectivity (RIP1 [4]): 0.37
Structure (SMILES): O=C(Cc1cccc(C(F)(F)F)c1)Nc1cc(Oc2ccc3nc(NC(=O)C4CC4)sc3c2[N+](=O)[O-])ccc1F [Compound 9]
EC50 (HT-29 cells [2]): 480 ± 10 nM
CC50 (Cytotoxicity): > 50000 nM

Kd (RIP3 [3]): 330 nM
Kd (RIP1 [4]): 880 nM
RIP1 selectivity (RIP1 [4]): 0.37
Structure (SMILES): CC(=O)c1c(Oc2ccc(F)c(NC(=O)Cc3cccc(C(F)(F)F)c3)c2)ccc2nc(NC(=O)C3CC3)sc12 [Compound 10]
anti-necroptosis activity improvement compared with TAK-632 (HT-29 cells [2]): more than 10 fold
EC50 (HT-29 cells [2]): 130 ± 60 nM
CC50 (Cytotoxicity): > 50000 nM

Structure (SMILES): N#Cc1cc(Oc2ccc(F)c(NC(=O)Cc3cccc(C(F)(F)F)c3)c2)cc2sc(NC(=O)C3CC3)nc12 [Compound 15]
EC50 (HT-29 cells [2]): > 10000 nM
anti-necroptosis activity (HT-29 cells [2]; at 10 μmol/L): completely eliminated the activity

Structure (SMILES): O=C(Cc1cccc(C(F)(F)F)c1)Nc1cc(Oc2cc3sc(NC(=O)C4CC4)nc3cc2F)ccc1F [Compound 25, N-(5-Fluoro-6-(4-fluoro-3-(2-(3-(trifluoromethyl)phenyl)acetamido)phenoxy)benzo[d]thiazol-2-yl)cyclopropanecarboxamide]
protective effects in the apoptosis model (HT-29 cells [5]): did not show any protective effects
death after single oral dose (healthy mice; 5 g/kg intragastric, 2 weeks, male and female mice): no death occurred
acute tolerability (healthy mice; 5 g/kg, 14-day period): well tolerated
anti-necroptosis potency improvement compared with SZM-594 (HT-29 cells [2]; EC50 ratio versus SZM-594): 21 fold
anti-necroptosis activity improvement compared with TAK-632 (HT-29 cells [2]): 180 fold
inhibition of necroptosis induced by TSZ (HT-29 cells [2]; HT-29 cells, TSZ 12 h): dose-dependently inhibit necroptosis
EC50 (HT-29 cells [2]): 8 ± 1 nM
DARTS protection of RIP1 from protease digestion (RIP1 [6]): protected from protease digestion
CC50 (Cytotoxicity): > 50000 nM
colon length (C57BL/6 J mice [7]; 20 mg/kg, Day 13, P < 0.01 versus untreated colitis mice): longer colon length
alleviation of body weight in UC mice (C57BL/6 J mice [7]; 10 or 20 mg/kg intragastric, from Day 11): significantly dose-responsed speeded up
phosphorylation of RIP1, RIP3 and MLKL in colon tissue (C57BL/6 J mice [7]; Western blot, TUNEL): reducing the phosphorylation
mRNA of inflammatory cytokines (Il-6 and Il-1β) and chemokine receptors (Ccr-2 and Ccr-5) (C57BL/6 J mice [7]; colon tissue, qPCR): significantly reduced
protein expressions of IL-6 and IL-1β in colon tissue (C57BL/6 J mice [7]; dose–response manner): inhibited the protein expressions
level of FITC-dextran in the serum (C57BL/6 J mice [7]; intestinal permeability, versus DSS-disease mice): significantly lower
DARTS detection of RIP3 after protease digestion (RIP3 [8]): not detected
inhibition of necroptosis induced by TCZ (HT-29 cells [9]): dose-dependently inhibit necroptosis
MRT inf (PK study in mice; iv, 1 mg/kg): 1.59 ± 0.43 h
Vd (PK study in mice; iv, 1 mg/kg): 1670 ± 856 L/kg
clearance (PK study in mice; iv, 1 mg/kg): 16.8 ± 4.8 mL/min/kg
half-life (PK study in mice; iv, 1 mg/kg): 1.67 ± 0.46 h
AUC (PK study in mice; iv, 1 mg/kg, AUC0‒t, 1 mg/kg i.v.): 1030 ± 350 ng·h/mL
AUC (PK study in mice; iv, 1 mg/kg, AUC0‒∞, 1 mg/kg i.v.): 1060 ± 354 ng·h/mL
Cmax (PK study in mice; po, 10 mg/kg): 381 ± 35 ng/mL
MRT inf (PK study in mice; po, 10 mg/kg): 2.74 ± 0.32 h
Tmax (PK study in mice; po, 10 mg/kg): 0.67 ± 0.29 h
bioavailability (PK study in mice; po, 10 mg/kg): 9.69 ± 2.31%
half-life (PK study in mice; po, 10 mg/kg): 1.18 ± 0.62 h
AUC (PK study in mice; po, 10 mg/kg, AUC0‒t, 10 mg/kg p.o.): 991 ± 218 ng·h/mL
AUC (PK study in mice; po, 10 mg/kg, AUC0‒∞, 10 mg/kg p.o.): 1030 ± 245 ng·h/mL
attenuation of necroptosis in L929 cells (L929 cells): dose-dependently attenuated necroptosis
activity toward RIP3 (RIP3 [3]; even at 5000 nmol/L): no apparent activity
downstream phosphorylation of MLKL [10]: completely inhibited
phosphorylation of RIP1 and RIP3 ([10]; within 6 h): completely inhibit
TSZ-induced necrosome formation (RIP1-RIP3 necrosome): completely blocked
body temperature loss in SIRS mice (C57BL/6 J mice [11]; 10 or 20 mg/kg intragastric, first 2–3 h after mTNF-α/Z-VAD-FMK): protected mice from body temperature loss
survival rate of SIRS mice (C57BL/6 J mice [11]; single dose 10 mg/kg): 60%
survival rate of SIRS mice (C57BL/6 J mice [11]; single dose 20 mg/kg): 100%
